In the supplement of paper PMC10307832:

Compound: Cc1ccc(C(=O)Nc2ccc(CN3CCN(C)CC3)c(C(F)(F)F)c2)cc1C#Cc1cnc2cccnn12 [Ponatinib] + Cc1nc(NC(=O)N2CCC[C@H]2C(N)=O)sc1-c1ccnc(C(C)(C)C(F)(F)F)c1 [Alpelisib] (partner 2 µM)
Assay: relative viability (nuclei count vs DMSO), 5 days (fraction); higher = more cells survive
Conditions: first compound 0.002 µM
How it was run: (§1)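 Five library-drug doses in √10 steps were combined with a fixed anchor-drug dose, or a single drug was given alone, by pin tool to lung cancer cell lines in 1536-well plates the day after seeding. Nuclei were stained and counted after 5 days. Relative viability is the nuclei count in treated wells over that in vehicle wells, taken as the median of duplicate plates.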

Cell Line | relative viability
NCI-H358 | 0.886
NCI-H3122 | 0.883
HOP-62 | 0.782
HCC-44 | 0.802
LU99A | 0.519
BEN | 0.948
HARA | 0.779
NCI-H441 | 0.625
NCI-H2009 | 1.14
A-427 | 1.08
NCI-H460 | 0.515
NCI-H727 | 0.599
NCI-H1734 | 0.594
NCI-H520 | 0.747
NCI-H2405 | 0.86
SW 1573 | 0.788
NCI-H1793 | 0.677

Cell Line | relative viability
201T | 1.02
NCI-H1915 | 0.976
HCC-827 | 1.01
LXF-289 | 1.05
NCI-H23 | 0.61
NCI-H650 | 0.964
CAL-12T | 1.03
NCI-H1651 | 0.867
EPLC-272H | 0.781
NCI-H2228 | 0.677
NCI-H1792 | 0.668
NCI-H1355 | 0.832
NCI-H322M | 0.77
NCI-H1437 | 0.952
NCI-H1755 | 0.905
NCI-H2023 | 0.642

Same assay, conditions: first compound 0.006325 µM

Cell Line | relative viability
NCI-H358 | 0.95
NCI-H3122 | 0.86
HOP-62 | 0.871
HCC-44 | 0.897
LU99A | 0.453
BEN | 0.977
HARA | 0.79
NCI-H441 | 0.615
LCLC-97TM1 | 0.227
NCI-H2009 | 1.13
A-427 | 1.06
NCI-H460 | 0.548
NCI-H727 | 0.533
NCI-H1734 | 0.721
NCI-H520 | 0.834
NCI-H2405 | 0.922
SW 1573 | 0.716

Cell Line | relative viability
NCI-H1793 | 0.946
201T | 1.03
NCI-H1915 | 1.03
HCC-827 | 0.987
LXF-289 | 1.02
NCI-H23 | 0.818
NCI-H650 | 1.08
CAL-12T | 1.12
NCI-H1651 | 1.06
EPLC-272H | 1.12
NCI-H2228 | 0.788
NCI-H1792 | 0.681
NCI-H1355 | 0.87
NCI-H322M | 0.694
NCI-H1437 | 0.969
NCI-H1755 | 0.96
NCI-H2023 | 0.639

Same assay, conditions: first compound 0.06325 µM

Cell Line | relative viability
NCI-H358 | 0.942
NCI-H3122 | 0.863
HOP-62 | 0.652
HCC-44 | 0.92
LU99A | 0.62
BEN | 1.08
HARA | 0.97
NCI-H441 | 0.808
NCI-H2009 | 1.18
A-427 | 1.07
NCI-H460 | 0.683
NCI-H727 | 0.72
NCI-H1734 | 0.741
NCI-H520 | 0.882
NCI-H2405 | 0.98
SW 1573 | 0.857
NCI-H1793 | 0.907

Cell Line | relative viability
201T | 1.08
NCI-H1915 | 1.06
HCC-827 | 1.01
LXF-289 | 1.04
NCI-H23 | 0.905
NCI-H650 | 1.22
CAL-12T | 1.46
NCI-H1651 | 1.07
EPLC-272H | 1.12
NCI-H2228 | 1.13
NCI-H1792 | 0.746
NCI-H1355 | 1.01
NCI-H322M | 0.866
NCI-H1437 | 1.17
NCI-H1755 | 0.957
NCI-H2023 | 0.666

Same assay, conditions: first compound 0.2 µM

Cell Line | relative viability
NCI-H358 | 0.772
NCI-H3122 | 0.909
HOP-62 | 0.718
HCC-44 | 0.794
LU99A | 0.466
BEN | 0.916
HARA | 0.729
NCI-H441 | 0.525
LCLC-97TM1 | 0.314
NCI-H2009 | 1.07
A-427 | 0.919
NCI-H460 | 0.662
NCI-H727 | 0.468
NCI-H1734 | 0.614
NCI-H520 | 0.66
NCI-H2405 | 0.666
SW 1573 | 0.693

Cell Line | relative viability
NCI-H1793 | 0.729
201T | 1.02
NCI-H1915 | 0.961
HCC-827 | 1.01
LXF-289 | 1.08
NCI-H23 | 0.666
NCI-H650 | 0.99
CAL-12T | 0.979
NCI-H1651 | 0.991
EPLC-272H | 0.942
NCI-H2228 | 0.75
NCI-H1792 | 0.656
NCI-H1355 | 0.917
NCI-H322M | 0.827
NCI-H1437 | 1.03
NCI-H1755 | 0.854
NCI-H2023 | 0.61

Compound: Cc1ccc(Nc2nccc(N(C)c3ccc4c(C)n(C)nc4c3)n2)cc1S(N)(=O)=O [Pazopanib] + CC(=O)Nc1cccc(-n2c(=O)n(C3CC3)c(=O)c3c(Nc4ccc(I)cc4F)n(C)c(=O)c(C)c32)c1 [Trametinib] (partner 0.02 µM)
Assay: as above
Conditions: first compound 0.01 µM
How it was run: as §1

Cell Line | relative viability
NCI-H358 | 0.145
NCI-H3122 | 0.248
HOP-62 | 0.378
HCC-44 | 1.03
BEN | 1.05
HARA | 0.829
NCI-H441 | 0.5
NCI-H2009 | 0.277
A-427 | 0.7
NCI-H460 | 0.087
NCI-H727 | 0.395
NCI-H1734 | 0.669
NCI-H520 | 0.606
NCI-H2405 | 0.562
SW 1573 | 0.604
201T | 0.719
NCI-H1915 | 0.294
HCC-827 | 0.558
LXF-289 | 0.691
NCI-H23 | 0.342
NCI-H650 | 0.942
CAL-12T | 0.32
NCI-H1651 | 0.833
